Reference: patent US20190084939A1, “ANALOGS OF FEXARAMINE AND METHODS OF MAKING AND USING” (Salk Institute for Biological Studies, priority 2014, published 2019)
Entries after “also recorded” stand apart in the source; their conditions may differ.

Key:
chow-fed mice = test: chronic PO fexaramine in normal chow-fed mice; format: in vivo
Procedure: FIGS. 3A-3D are line graphs and a bar graph showing the effects of fexaramine administration in normal chow-fed mice. The mice were treated with vehicle or fexaramine (100 mg/kg) via PO for 5 weeks. Data represent the mean±STD. Statistical analysis as performed with the Student's t test (*p<0.05, **p<0.01).
To investigate the physiological effects of intestinal FXR activation by fexaramine, mice were subjected to chronic fexaramine (100 mg/kg Fex) PO treatment for 5 weeks.

[1] = system: C57BL/6J mice with intragastric ethanol feeding; test: alcoholic liver disease, Tsukamoto-French mouse model; format: in vivo; conditions: ethanol feeding 3 weeks; 100 mg/kg/day oral gavage
Procedure: FIGS. 44A-44C are a (A) digital image of histology images of the liver and (B) and (C) bar graphs showing that administration of fexaramine can protect the liver from alcoholic liver disease, for example by decreasing fat in the liver, liver enzyme ALT and triglycerides (TG). C57BL/6J mice, fed an isocaloric diet or ethanol through continuous intragastric feeding for 3 weeks, were co-administered Fexaramine (100 mg/kg/day oral gavage) or vehicle. (A) Histological liver sections from ethanol fed mice after vehicle or fexaramine treatment. (B) Bar graph of serum alanine aminotransferase (ALT) levels in vehicle and fexaramine treated mice after 3 weeks of an ethanol diet (C) Liver triglyceride levels in vehicle and fexaramine treated mice after 3 weeks of an ethanol or isocaloric (control) diet.
The Tsukamoto-French mouse model, which involves continuous intragastric feeding of isocaloric diet or ethanol for 3 weeks, was used. C57BL/6J mice were co-administered vehicle or fexaramine by oral gavage (100 mg/kg/day). Mice were sacrificed after treatment and conjugated and unconjugated bile acid levels measured in serum and liver by liquid chromatography/mass spectrometry.

DIO mice = test: hyperinsulinemic-euglycemic clamp in DIO mice; format: in vivo
Procedure: FIGS. 15I-15K are a line graph and two bar graphs showing the effect of fexaramine treatment on body weight, insulin-stimulated GDR, and fasting insulin levels. Mice were fed HFD for 14 weeks, and then administered daily oral injections of vehicle or fexaramine (100 mg/kg) for 3 weeks with HFD. The mice treated with fexaramine were initially heavier (by 2-3 grams). Three weeks after treatment, a clamp study was performed on the mice. Data represent the mean±STD. Statistical analysis was performed with the Student's t test (*p<0.05, **p<0.01).

[2] = system: diet-induced obesity (DIO) mice; test: chronic PO fexaramine in diet-induced obesity (DIO) mice; format: in vivo; conditions: for glucose tolerance and insulin sensitivity (GTT, ITT): PO 5 weeks
Procedure: FIGS. 2A-2G are graphs illustrating the reduction of diet-induced obesity and improvement in metabolic homeostasis with fexaramine. […] Data represent the mean±STD. Statistical analysis was performed with the Student's t test (*p<0.05, **p<0.01).
The physiological effects of fexaramine in established obesity (diet-induced obesity, DIO) models were evaluated. […]

human L cells = test: oxygen consumption rate of intestinal L cells (Seahorse analyzer); format: cell-based; conditions: fexaramine 1 μM for 24 hours
Procedure: FIG. 41 is a graph showing the effects of modulating FXR activity on the oxidative metabolism of intestinal L cells. L cells were treated with the FXR agonist fexaramine, the FXR antagonist Guggulsterone, or a combination of both, prior to measurement of their oxygen consumption rate (OCR) in a Seahorse analyzer.
To examine the effects of FXR in the secretion of GLP-1, the metabolic changes induced in human L cells was measured by treatment with the FXR agonist, fexaramine and an FXR antagonist guggulsterone. Treatment of L cells with fexaramine (1 μM for 24 hours) lead to an increase in the oxygen consumption rate (OCR), consistent with increased mitochondrial activity and consequently, an increased energetic state (FIG. 41). The reverse effect was seen after treatment with the FXR antagonist, guggulsterone, with lower OCR after drug treatment.

[3] = system: FXR target gene expression; test: FXR target gene expression (qPCR) in tissues after PO or IP fexaramine; format: in vivo, C57BL/6J mice; conditions: for FXR target gene (SHP) expression in liver and kidney, IP versus PO / FXR target genes (IBABP, OSTα, FGF15) in the intestine / FXR target genes in liver or kidney: 100 mg/kg; for FXR target genes (IBABP, OSTα, FGF15) in the intestine / FXR target genes in liver or kidney: PO
Procedure: FIGS. 1A-1C are a comparative expression chart and two bar charts, respectively, illustrating increased levels of FXR target gene expression in the intestine relative to expression in the liver and kidney. 8 week-old C57BL/6J mice were treated with vehicle or fexaramine (100 mg/kg) via oral (PO) or intraperitoneal (IP) injection for three days (FIGS. 1A-1B) or five days (FIG. 1C).
FXR target gene expression was analyzed by qPCR. Gene expression was normalized against a vehicle-treated group.
Upon exploration of the in vivo effects of fexaramine (Fex) administration, it was discovered that due to ineffectual absorption, oral (PO) and intraperitoneal (IP) drug delivery produced very different effects (FIGS. 1D and 1E).

## COC(=O)/C=C/c1cccc(N(Cc2ccc(-c3ccc(N(C)C)cc3)cc2)C(=O)C2CCCCC2)c1 [Fexaramine, fexaramine]
chow-fed mice; chow-fed mice, 100 mg/kg PO 5 weeks
  weight gain, basal metabolic activity and glucose tolerance: indistinguishable from vehicle-treated mice
chow-fed mice; normal chow-fed mice, range of doses
  glucose homeostasis: no effects observed
[1]
  hepatic steatosis: decreasing hepatic steatosis
  serum levels of alanine aminotransferase (ALT): decreased
DIO mice; versus control DIO mice
  insulin-mediated suppression of HGP: marked increase
DIO mice; weight-matched cohorts
  basal HGP, GDR, IS-GDR, FFA suppression and fasting insulin levels: No differences
[2]; DIO mice
  BAT expression of ERRγ, PGC-1α, PGC-1β and target genes: induction
  PKA activity in BAT: increased PKA activity
  accumulation of lipid vesicles in brown adipose tissue (BAT): markedly reduced
  activity (ambulatory counts): more active than control mice
  bile acid pool size: reducing
  brown fat-like signature genes and respiratory capacity of stromal vascular fraction of inguinal adipose tissue: increased
  circulating FGF15: increase
  expression of TNFα, MCP-1, IL-1α and F4/80 in visceral and brown adipose depots: reduced
  fraction of lithocholic acid in circulating bile acids: increasing
  fraction of taurocholic acid in circulating bile acids: decreasing
  levels of IKK-ε and TBK1 in adipose tissue: reduced levels
  liver lipid droplets (histology): reduction in lipid droplets
  mTORC1 pathway, S6K phosphorylation in gonadal WAT: reduced S6K phosphorylation
  phosphorylation level of p38 in BAT: increased
  ratio of unconjugated to conjugated cholic acid: remarkably increased
  respiratory exchange ratio: No changes
  serum alanine aminotransferase (ALT) levels: decreased
  serum lactate levels: significantly decreased
  glucose tolerance and insulin sensitivity (GTT, ITT): improved glucose clearance; also recorded: improved insulin sensitivity
[2]; DIO mice, 100 mg/kg PO 5 weeks
  glucose, insulin, leptin, cholesterol and resistin levels: reduced
  increase of core body temperature: approximately 1.5 °C
  overall fat mass (MRI): reduced overall fat mass
  serum inflammatory cytokines TNFα, IL-1α, IL-1β, IL-17 and MCP-1: markedly decreased
  weight gain: prevented weight gain
  wet weights of subcutaneous and visceral adipose depots: significant reductions
[2]; DIO mice, 10, 50 or 100 mg/kg PO 5 weeks
  prevention of weight gain over doses: dose-dependent manner
[2]; DIO mice, listed as Fex
  glucose tolerance and insulin sensitivity (GTT, ITT): dose-dependent improvements
  respiratory exchange ratio: similar
  serum lactate levels: significantly reduced
[2]; DIO mice, RNA-Seq
  FGF15 expression in ileum: dramatically upregulated
[2]; DIO mice, RNA-sequencing
  OXPHOS gene changes in inguinal, gonadal and brown adipose depots: selectively enhance OXPHOS activity only in BAT
[2]; DIO mice, chronic treatment
  HSL phosphorylation and serum levels of free fatty acids: pronounced increase
  cross-sectional area of adipocytes in visceral depots: markedly reduced
  expression of mucosal defense genes Occludin and Muc2: increased expression
  hepatic CYP7A1 expression (mRNA and protein): significantly repressed
  hepatic expression of CYP8B1 and CYP27A1: not affected
  hepatic expression of gluconeogenic and lipogenic genes: reduced
  hepatic triglycerides: marked decrease
  liver FXR target genes SHP and BSEP: not altered
  serum catecholamine levels and β3-adrenergic receptor expression: increased
[2]; DIO mice, highest dose
  weight gain at the highest dose: almost completely abrogated
[2]; DIO mice, immunohistochemistry
  abundance of multi-locular, UCP1-expressing adipocytes in inguinal adipose tissue: substantial increase
[2]; DIO mice, versus vehicle
  food intake: not attributable to difference in food intake
[2]; DIO mice, weight-matched
  carbon dioxide production (VCO2): exhaled more carbon dioxide
  oxygen consumption (VO2): consistently higher
[2]; mouse, in vivo, po
  intestinal toxicity (histology of ileum and colon): no signs of intestinal toxicity
Human L cells
  oxygen consumption rate (OCR): increase
[3]
  FXR target gene (SHP) expression in liver and kidney, IP versus PO: increases
  FXR target genes (IBABP, OSTα, FGF15) in the intestine: substantially enhances
  FXR target genes in liver or kidney: intestinally-restricted; also recorded: not in the liver or kidney
[3]; listed as Fex
  FXR target gene (SHP) expression in liver and kidney, IP versus PO: only seen in liver and kidney after IP treatment
  FXR target genes (IBABP, OSTα, FGF15) in the intestine: induced multiple FXR target genes in the intestine
  FXR target genes in liver or kidney: failed to affect
[3]; acute PO and IP, 100 mg/kg for five days
  induction of FXR target gene SHP throughout the intestine: robust induction
